pKi: −log10 of the molar value.
biological target: human orexin 2 receptor (Homo sapiens (Human), UniProt O43614); assay: Human orexin 2 receptor radioligand binding (competitive, [3H]-EMPA, HEK293 cell preparations); conditions: hOX2 Ki (nm)
Sequence (O43614 whole entry): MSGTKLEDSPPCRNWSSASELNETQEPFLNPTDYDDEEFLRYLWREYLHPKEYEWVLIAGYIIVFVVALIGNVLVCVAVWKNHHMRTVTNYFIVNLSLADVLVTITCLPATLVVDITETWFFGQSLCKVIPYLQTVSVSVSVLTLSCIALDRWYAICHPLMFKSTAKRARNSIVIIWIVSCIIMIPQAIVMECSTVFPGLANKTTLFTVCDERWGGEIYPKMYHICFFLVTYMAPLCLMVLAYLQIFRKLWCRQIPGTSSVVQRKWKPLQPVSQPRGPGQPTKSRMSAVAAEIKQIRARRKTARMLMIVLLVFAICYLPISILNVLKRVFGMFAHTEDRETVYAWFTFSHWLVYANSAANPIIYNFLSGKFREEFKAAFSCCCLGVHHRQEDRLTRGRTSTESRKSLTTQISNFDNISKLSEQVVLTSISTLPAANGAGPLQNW

Q: With `Cc1ccc(-n2nccn2)c(C(=O)N2C3CCC2C(COc2ccccn2)C3)n1` (racemic) [Example 4, (±)-(6-methyl-3-(2H-1,2,3-triazol-2-yl)pyridin-2-yl)(2-((pyridin-2-yloxy)methyl)-7-azabicyclo[2.2.1]heptan-7-yl)methanone] as the compound, how does the pKi read?
A: The pKi was 6.03.

Q: With `CCOc1ccccc1C(=O)N1C2CCC1C(COc1nc(C)cc(C)n1)C2` (racemic) [Example 42, (±)-(2-(((4,6-dimethylpyrimidin-2-yl)oxy)methyl)-7-azabicyclo[2.2.1]heptan-7-yl)(2-ethoxyphenyl)methanone] as the compound, how does the pKi read?
A: The pKi was 6.60.

Q: With `Cc1ccc(-n2nccn2)c(C(=O)N2[C@@H]3CC[C@H]2[C@H](COc2ccccn2)C3)n1` [Example 5A, (6-methyl-3-(2H-1,2,3-triazol-2-yl)pyridin-2-yl)((1S,2R,4R)-2-((pyridin-2-yloxy)methyl)-7-azabicyclo[2.2.1]heptan-7-yl)methanone] as the compound, how does the pKi read?
A: Its pKi is 6.37.

Q: `Cc1ccc(-n2nccn2)c(C(=O)N2C3CCC2C(COc2ccccn2)C3)n1` [Example 6, (6-methyl-3-(2H-1,2,3-triazol-2-yl)pyridin-2-yl)((1S,2R,4R)-2-((pyridin-2-yloxy)methyl)-7-azabicyclo[2.2.1]heptan-7-yl)methanone] was tested. Which pKi did it give?
A: Its pKi is 6.37.

same assay, conditions: human orexin 2 receptor, [3H]-EMPA competition binding; read-out: hOX2 Ki (nm)

Q: With `Cc1ccc(-n2nccn2)c(C(=O)N2C3CCC2C(COc2ccc(F)cn2)C3)c1` (racemic) [Example 9, (±)-(2-(((5-fluoropyridin-2-yl)oxy)methyl)-7-azabicyclo[2.2.1]heptan-7-yl)(5-methyl-2-(2H-1,2,3-triazol-2-yl)phenyl)methanone] as the compound, how does the pKi read?
A: The pKi was 7.24.

Q: With `COc1c(F)cccc1C(=O)N1C2CCC1C(COc1ccc(F)cn1)C2` (racemic) [Example 107, (±)-((3-fluoro-2-methoxyphenyl)(2-(((5-fluoropyridin-2-yl)oxy)methyl)-7-azabicyclo[2.2.1]heptan-7-yl)methanone] as the compound, how does the pKi read?
A: Its pKi is 5.66.

Q: `COc1c(F)cccc1C(=O)N1C2CCC1C(COc1ccc(F)cn1)C2` (racemic) [Example 173, (±)-(3-fluoro-2-methoxyphenyl)(2-(((5-fluoropyridin-2-yl)oxy)methyl)-7-azabicyclo[2.2.1]heptan-7-yl)methanone] was tested. Which pKi did it give?
A: Its pKi is 5.52.

Q: With `O=C(c1cc(F)ccc1-c1ncccn1)N1[C@@H]2CC[C@H]1[C@H](COc1ccccn1)C2` [Example 1, (5-fluoro-2-(pyrimidin-2-yl)phenyl)((1S,2R,4R)-2-((pyridin-2-yloxy)methyl)-7-azabicyclo[2.2.1]heptan-7-yl)methanone] as the compound, how does the pKi read?
A: Its pKi is 6.56.

Q: How did the pKi turn out when `Cc1ccc(-n2nccn2)c(C(=O)N2[C@@H]3CC[C@H]2[C@H](COc2ccc(F)cn2)C3)c1` [Example 10A, ((1S,2R,4R)-2-(((5-fluoropyridin-2-yl)oxy)methyl)-7-azabicyclo[2.2.1]heptan-7-yl)(5-methyl-2-(2H-1,2,3-triazol-2-yl)phenyl)methanone] was run?
A: Its pKi is 7.49.

Q: `CCOc1ccc2ccccc2c1C(=O)N1[C@@H]2CC[C@H]1[C@H](Nc1cnc(C(F)(F)F)cn1)C2` [Example 239, (2-ethoxynaphthalen-1-yl)((1S,2R,4R)-2-((5-(trifluoromethyl)pyrazin-2-yl)amino)-7-azabicyclo[2.2.1]heptan-7-yl)methanone] was tested. Which pKi did it give?
A: Its pKi is 6.31.

Q: `CCOc1ncc2ccccc2c1C(=O)N1[C@@H]2CC[C@H]1[C@H](Nc1cnc(C(F)(F)F)cn1)C2` [Example 246, (3-ethoxyisoquinolin-4-yl)((1S,2R,4R)-2-((5-(trifluoromethyl)pyrazin-2-yl)amino)-7-azabicyclo[2.2.1]heptan-7-yl)methanone] was tested. Which pKi did it give?
A: The pKi was 5.99.

same assay, conditions: read-out: hOX2 Ki (nm)

Q: How did the pKi turn out when `O=C(c1ccccc1-n1nccn1)N1C2CCC1C(Nc1cnc(C(F)(F)F)cn1)C2` (single isomer, unassigned) [Example 183a] was run?
A: Its pKi is under 5.00.

Q: With `Cc1ccc(-n2nccn2)c(C(=O)N2[C@H]3CC[C@@H]2[C@@H](COc2ccccn2)C3)n1` [Example 5B, (6-methyl-3-(2H-1,2,3-triazol-2-yl)pyridin-2-yl)((1R,2S,4S)-2-((pyridin-2-yloxy)methyl)-7-azabicyclo[2.2.1]heptan-7-yl)methanone] as the compound, how does the pKi read?
A: The pKi was under 5.00.

Source: patent publication US9062078B2, “Substituted 7-azabicyles and their use as orexin receptor modulators” (priority 2013, dated 2015)
